# Results as given in patent US9249132B2, “Substituted bicyclic aromatic compounds as S-nitrosoglutathione reductase inhibitors” (Nivalis Therapeutics, Inc., priority 2010, dated 2016).
# Test system: dextran sodium sulfate (DSS)-induced IBD
# Assay: Acute prophylactic model of DSS-induced IBD
# Format: in vivo, mouse
# Source text: Acute and chronic models of dextran sodium sulfate (DSS)-induced IBD in mice were used to explore efficacy of GSNORi against this disease. Acute and chronic DSS-induced IBD are widely used and well characterized models that induce pathological changes in the colon similar to those observed in the human disease. In these models and in human disease, epithelial cells within the crypts of the colon are disrupted, leading to dysfunction of the epithelial barrier and the ensuing tissue inflammation, edema, and ulceration. GSNORi therapy may benefit IBD by restoring s-nitrosoglutathione (GSNO) levels, and thus prevent or reverse the epithelial barrier dysfunction. Experimental IBD was induced by administration of DSS in the drinking water of male C57B1/6 mice (N=8 to 10 mice per group) for 6 consecutive days. GSNORi was dosed orally at doses of 0.1 to 10 mg/kg/day for 10 days starting two days prior to and continuing two days post DSS exposure. Two days post DSS exposure, the effect of GSNORi was assessed in a blinded fashion via endoscopy and histopathology using a five point scale ranging from a score=0 (normal tissue) through a score=4 (ulcerative tissue damage and marked pathological changes). Levels of circulating cytokines involved in inflammatory pathways were also assessed. The effect of GSNORi was compared to vehicle treated controls. The corticosteroid, prednisolone, was used as the positive control in this study and was administered daily at 3 mg/kg/day via oral dosing. Naïve mice (N=5) were also assessed as a normal tissue control.
# [1] = acute model, oral 1 mg/kg/day for 10 consecutive days, prophylactic dosing regimen
smiles,measurement,setting,value
"O=C(O)c1ccc(-c2ccc3cc(O)ccc3c2)c(Cl)c1 [Example 1, 3-chloro-4-(6-hydroxynaphthalen-2-yl)benzoic acid]",colon injury (in words),acute DSS-induced IBD,attenuated colon injury
same,"decrease of percent of mice presenting with severe colon injury scores via endoscopy, of vehicle control",[1],17%
same,"decrease of percent of mice presenting with severe colon injury scores via histopathology, of vehicle control",[1],21%
same,"decrease of percent of mice presenting with severe endoscopy scores, of vehicle control","acute model, oral 10 mg/kg/day for 10 days, p<0.05",72%
